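Exposure lasted 48 hours, with cells grown in 96-well plates and compounds tested at five concentrations. The concentration for full growth arrest is given as TGI.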
Tests used:
Assay in all cases: NCI tumour cell line growth inhibition, 48 h
SK-OV-3 ovarian = tested on: SK-OV-3 ovarian
SK-MEL-2 melanoma = tested on: SK-MEL-2 melanoma
MDA-MB-435 = tested on: MDA-MB-435
A549 NSCLC = tested on: A549 NSCLC
OVCAR-8 ovarian = tested on: OVCAR-8 ovarian
DU-145 prostate = tested on: DU-145 prostate
HT29 colon = tested on: HT29 colon
NCI-H23 lung = tested on: NCI-H23 lung
SK-MEL-5 melanoma = tested on: SK-MEL-5 melanoma
OVCAR-5 ovarian = tested on: OVCAR-5 ovarian
NCI-H522 lung = tested on: NCI-H522 lung
HCT-15 colon = tested on: HCT-15 colon
HOP-92 NSCLC = tested on: HOP-92 NSCLC
OVCAR-4 ovarian = tested on: OVCAR-4 ovarian
HCT-116 colon = tested on: HCT-116 colon
EKVX NSCLC = tested on: EKVX NSCLC
MCF7 breast = tested on: MCF7 breast
COLO 205 colon = tested on: COLO 205 colon
RPMI-8226 leukemia = tested on: RPMI-8226 leukemia
LOX IMVI melanoma = tested on: LOX IMVI melanoma
ACHN renal = tested on: ACHN renal
A498 renal = tested on: A498 renal
CAKI-1 renal = tested on: CAKI-1 renal
K-562 leukemia = tested on: K-562 leukemia
OVCAR-3 ovarian = tested on: OVCAR-3 ovarian
CCRF-CEM leukemia = tested on: CCRF-CEM leukemia
RXF 393 renal = tested on: RXF 393 renal
SF-268 CNS = tested on: SF-268 CNS
TK-10 renal = tested on: TK-10 renal
U251 CNS = tested on: U251 CNS
MDA-N = tested on: MDA-N
SF-295 CNS = tested on: SF-295 CNS
KM12 colon = tested on: KM12 colon
UO-31 renal = tested on: UO-31 renal
HL-60(TB) leukemia = tested on: HL-60(TB) leukemia
MOLT-4 leukemia = tested on: MOLT-4 leukemia
SW-620 colon = tested on: SW-620 colon
SK-MEL-28 melanoma = tested on: SK-MEL-28 melanoma
M14 melanoma = tested on: M14 melanoma
SN12C renal = tested on: SN12C renal
UACC-62 melanoma = tested on: UACC-62 melanoma
MALME-3M melanoma = tested on: MALME-3M melanoma
NCI/ADR-RES ovarian = tested on: NCI/ADR-RES ovarian
PC-3 prostate = tested on: PC-3 prostate
T-47D breast = tested on: T-47D breast
SR leukemia = tested on: SR leukemia
NCI-H226 lung = tested on: NCI-H226 lung
MDA-MB-231 breast = tested on: MDA-MB-231 breast
IGROV1 ovarian = tested on: IGROV1 ovarian
BT-549 breast = tested on: BT-549 breast
SNB-19 CNS = tested on: SNB-19 CNS
HS 578T breast = tested on: HS 578T breast
UACC-257 melanoma = tested on: UACC-257 melanoma
786-0 renal = tested on: 786-0 renal
SNB-75 CNS = tested on: SNB-75 CNS
HOP-62 NSCLC = tested on: HOP-62 NSCLC
SF-539 CNS = tested on: SF-539 CNS
HCC-2998 colon = tested on: HCC-2998 colon
NCI-H460 lung = tested on: NCI-H460 lung

Question: What does the source list for `Cc1ccc(SCN2CCCCC2)cc1` (tested in a mixture with another compound)?
Answer: TGI (SK-OV-3 ovarian): 29.7 µM; TGI (SK-MEL-2 melanoma): 31.1 µM; TGI (MDA-MB-435): 25.6 µM; TGI (A549 NSCLC): 72.8 µM; TGI (OVCAR-8 ovarian): > 100 µM; TGI (DU-145 prostate): 28.1 µM; TGI (HT29 colon): 31.5 µM; TGI (NCI-H23 lung): 22.9 µM; TGI (SK-MEL-5 melanoma): 12.5 µM; TGI (OVCAR-5 ovarian): 25.8 µM; TGI (NCI-H522 lung): 8.86 µM; TGI (HCT-15 colon): 32 µM; TGI (HOP-92 NSCLC): 31 µM; TGI (OVCAR-4 ovarian): 43.8 µM; TGI (HCT-116 colon): 23.4 µM; TGI (EKVX NSCLC): 39.2 µM; TGI (MCF7 breast): 59.4 µM; TGI (COLO 205 colon): 16 µM; TGI (RPMI-8226 leukemia): 29.5 µM; TGI (LOX IMVI melanoma): 14.3 µM; TGI (ACHN renal): 28.7 µM; TGI (A498 renal): 14.7 µM; TGI (CAKI-1 renal): 26.3 µM; TGI (K-562 leukemia): 46.3 µM; TGI (OVCAR-3 ovarian): 30 µM; TGI (CCRF-CEM leukemia): 6.59 µM; TGI (RXF 393 renal): 22.3 µM; TGI (SF-268 CNS): 20.6 µM; TGI (TK-10 renal): 45.3 µM; TGI (U251 CNS): 23.2 µM; TGI (MDA-N): 22.7 µM; TGI (SF-295 CNS): 33.1 µM; TGI (KM12 colon): 26.5 µM; TGI (UO-31 renal): 30.2 µM; TGI (HL-60(TB) leukemia): 4.98 µM; TGI (MOLT-4 leukemia): 16.2 µM; TGI (SW-620 colon): 56.5 µM; TGI (SK-MEL-28 melanoma): 29.7 µM; TGI (M14 melanoma): 37.3 µM; TGI (SN12C renal): 31.4 µM; TGI (UACC-62 melanoma): 27.7 µM; TGI (MALME-3M melanoma): 31.3 µM; TGI (NCI/ADR-RES ovarian): 57.5 µM; TGI (PC-3 prostate): 30.2 µM; TGI (T-47D breast): > 100 µM; TGI (SR leukemia): 25.6 µM; TGI (NCI-H226 lung): 36.7 µM; TGI (MDA-MB-231 breast): 27.7 µM; TGI (IGROV1 ovarian): 10.9 µM; TGI (BT-549 breast): 15 µM; TGI (SNB-19 CNS): 49.9 µM; TGI (HS 578T breast): 37.1 µM; TGI (UACC-257 melanoma): 30.6 µM; TGI (786-0 renal): 29.9 µM; TGI (SNB-75 CNS): 22.5 µM; TGI (HOP-62 NSCLC): 37.7 µM

Question: Which results are given for `CCO/C=N/C1=C(C#N)C(c2ccc(OC)c(OC)c2)c2c(-c3ccccc3)nn(-c3ccccc3)c2O1` (stereo unspecified)?
Answer: TGI (SK-OV-3 ovarian): 60.2 µM; TGI (SK-MEL-2 melanoma): 43.8 µM; TGI (MDA-MB-435): 33.1 µM; TGI (A549 NSCLC): 40.5 µM; TGI (OVCAR-8 ovarian): 47.6 µM; TGI (DU-145 prostate): 28.7 µM; TGI (HT29 colon): 52.5 µM; TGI (SF-539 CNS): 33.7 µM; TGI (NCI-H23 lung): 31.1 µM; TGI (SK-MEL-5 melanoma): 24.4 µM; TGI (OVCAR-5 ovarian): 52.6 µM; TGI (NCI-H522 lung): 38.2 µM; TGI (HCT-15 colon): 18 µM; TGI (HOP-92 NSCLC): 30 µM; TGI (HCT-116 colon): 28.3 µM; TGI (EKVX NSCLC): 33.1 µM; TGI (MCF7 breast): 53.1 µM; TGI (COLO 205 colon): 27.1 µM; TGI (RPMI-8226 leukemia): > 100 µM; TGI (LOX IMVI melanoma): 31 µM; TGI (ACHN renal): 28.3 µM; TGI (CAKI-1 renal): 33.3 µM; TGI (K-562 leukemia): 27 µM; TGI (OVCAR-3 ovarian): 77.1 µM; TGI (CCRF-CEM leukemia): 6.26 µM; TGI (RXF 393 renal): 29.8 µM; TGI (SF-268 CNS): 61.7 µM; TGI (U251 CNS): 26.8 µM; TGI (MDA-N): 35.5 µM; TGI (SF-295 CNS): 30.7 µM; TGI (KM12 colon): 22.1 µM; TGI (UO-31 renal): 38.5 µM; TGI (HL-60(TB) leukemia): 8.85 µM; TGI (MOLT-4 leukemia): 38.4 µM; TGI (SW-620 colon): 29.2 µM; TGI (SK-MEL-28 melanoma): 29.4 µM; TGI (M14 melanoma): 60 µM; TGI (SN12C renal): 38.9 µM; TGI (UACC-62 melanoma): 27.6 µM; TGI (MALME-3M melanoma): 51.2 µM; TGI (HCC-2998 colon): > 100 µM; TGI (NCI/ADR-RES ovarian): 48.3 µM; TGI (PC-3 prostate): > 100 µM; TGI (T-47D breast): 60.5 µM; TGI (NCI-H226 lung): 32.9 µM; TGI (MDA-MB-231 breast): 40.4 µM; TGI (IGROV1 ovarian): 14.8 µM; TGI (BT-549 breast): 23.8 µM; TGI (SNB-19 CNS): 29.6 µM; TGI (HS 578T breast): > 100 µM; TGI (UACC-257 melanoma): > 100 µM; TGI (786-0 renal): 29.2 µM; TGI (SNB-75 CNS): 34.2 µM; TGI (NCI-H460 lung): > 100 µM; TGI (HOP-62 NSCLC): > 100 µM
